Measured values from ChEMBL document CHEMBL4340549, “Design, synthesis and biological evaluation of isochroman-4-one hybrids bearing piperazine moiety as antihypertensive agent candidates” (Bioorg Med Chem, 2019).

Legend:
[1] = target: T1, Alpha-1A adrenergic receptor (Rattus norvegicus, UniProt P43140); experiment: Antagonist activity at alpha-1a adrenergic receptor in SPF rat prostatic vas deferens assessed as inhibition of noradrenaline-induced contractions; conditions: read-out: pA2 (converted)
T1 sequence (P43140 whole entry): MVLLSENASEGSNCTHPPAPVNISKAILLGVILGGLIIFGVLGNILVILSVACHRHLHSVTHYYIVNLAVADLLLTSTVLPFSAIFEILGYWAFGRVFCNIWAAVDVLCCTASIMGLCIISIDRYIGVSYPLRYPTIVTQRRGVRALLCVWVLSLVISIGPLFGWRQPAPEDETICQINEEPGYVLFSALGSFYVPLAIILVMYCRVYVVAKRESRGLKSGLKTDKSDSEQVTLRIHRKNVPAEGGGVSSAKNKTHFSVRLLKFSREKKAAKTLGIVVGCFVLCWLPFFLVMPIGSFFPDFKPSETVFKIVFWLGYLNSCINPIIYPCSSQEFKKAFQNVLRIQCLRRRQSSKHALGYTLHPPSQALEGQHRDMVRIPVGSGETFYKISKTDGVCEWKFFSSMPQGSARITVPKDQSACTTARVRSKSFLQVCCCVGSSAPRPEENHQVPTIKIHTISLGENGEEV

Rattus norvegicus [2] = experiment: Antihypertensive activity in spontaneously hypertensive rat assessed as systolic arterial pressure at 80 mg/kg, po measured after 8 hrs by tail-cuff method (reference value: 179.42 +/- 13.70 mmHg); type: functional
Rattus norvegicus [3] = experiment: Effect on heart rate in spontaneously hypertensive rat assessed as heart rate level at 80 mg/kg, po measured after 8 hrs by tail-cuff method (reference value: 412.77 +/- 11.3 bpm); type: ADME, organism-based; conditions: in vivo
Rattus norvegicus [4] = experiment: Antihypertensive activity in spontaneously hypertensive rat assessed as mean arterial pressure at 80 mg/kg, po measured after 1 hr by tail-cuff method (reference value: 160 +/- 9.97 mmHg); type: functional
Rattus norvegicus [5] = experiment: Antihypertensive activity in spontaneously hypertensive rat assessed as systolic arterial pressure at 80 mg/kg, po measured after 2 hrs by tail-cuff method (reference value: 189.20 +/- 12.31 mmHg); type: functional
Rattus norvegicus [6] = experiment: Antihypertensive activity in spontaneously hypertensive rat assessed as systolic arterial pressure at 80 mg/kg, po measured after 4 hrs by tail-cuff method (reference value: 178.66 +/- 17.18 mmHg); type: functional
Rattus norvegicus [7] = experiment: Effect on heart rate in spontaneously hypertensive rat assessed as heart rate level at 80 mg/kg, po measured after 4 hrs by tail-cuff method (reference value: 410.80 +/- 17.4 bpm); type: ADME, organism-based; conditions: in vivo
Rattus norvegicus [8] = experiment: Antihypertensive activity in spontaneously hypertensive rat assessed as diastolic arterial pressure at 80 mg/kg, po measured after 8 hrs by tail-cuff method (reference value: 140.61 +/- 10.3 mmHg); type: functional
Rattus norvegicus [9] = experiment: Antihypertensive activity in spontaneously hypertensive rat assessed as systolic arterial pressure at 80 mg/kg, po measured after 0 hrs by tail-cuff method (reference value: 186.10 +/- 4.55 mmHg); type: functional

Kb [1]: 224 nM
Structure (SMILES): COc1cc2c(cc1OCC(O)CN1CCN(C(=O)C3CCCO3)CC1)C(=O)C(C)OC2 (centres undefined)
Activity (Rattus norvegicus [2]): 170.38 mmHg
Activity (Rattus norvegicus [3]): 413.16 bpm
Activity (Rattus norvegicus [4]): 152.5 mmHg
Activity (Rattus norvegicus [5]): 150.8 mmHg
Activity (Rattus norvegicus [6]): 140.29 mmHg
Activity (Rattus norvegicus [7]): 405.15 bpm
Activity (Rattus norvegicus [8]): 141.89 mmHg
Activity (Rattus norvegicus [9]): 187.64 mmHg
